Patent US20090031433A1, “METHODS FOR SCREENING INSECTICIDES” (priority 2004, published 2009)

Assays:
[1] = tested on: D. melanogaster control strains (CONTROL 1, CONTROL 2); experiment: Topical application bioassay on adult females, control strains; type: in vivo, Drosophila melanogaster; details: 50 ppm topical application, by 5 hours, 3 independent experiments
Procedure: (§1) For testing on adults by topical application of compounds, a method has been adapted from Dapkus (Drosophila Information Newsletter, Volume 1, January 1991; http://jfly.iam.u-tokyo.ac.jp/html/din/DIN_Vol_01—9101.txt). 0-3 day old adult D. melanogaster females are anaesthetised using CO2, and 0.4 uL of compound dissolved in acetone is applied to the abdomens of these females using a Hamilton pipette. After compound application, the flies are cultured under normal conditions for the required time intervals, and either visually assessed (as in Example 6.2) or harvested for chemical analysis (Example 7). Ideally the experiment is repeated on 3 separate ocassions
(§2) The effects of the compounds on the whole insects (larvae and adults) are monitored by visual assessment, daily or at a frequency as required. In one type of assessment, the mortality of the insects over time is scored. For example, if the adult test is used, the insects are monitored at time points that have been determined previously to be suitable for the experiment. The number of dead flies at each time point is scored.
(§3) Bioassays are carried out as described above. In one example, the insecticide Malathion was applied to 20 females at a dose of 50 ppm per time point to be assessed, according to the topical application method described above. […]

[2] = tested on: D. melanogaster MUTANT strain (dhr96_hairpin / GAL4-arm, reduced dhr96 expression); experiment: Topical application bioassay on adult females, dhr96 knockdown mutant strain; type: in vivo, Drosophila melanogaster; details: 50 ppm topical application, at 5 hours, 3 independent experiments
Procedure: as §1, §2, §3

With `CCOC(=O)CC(SP(=S)(OC)OC)C(=O)OCC` (centres unmarked) [Malathion] the percentage mortality [1] was at least 95% and the mortality [2] was “no or significantly reduced mortality”.
